These results are taken from article PMC12048435, “Multifunctional acyltransferases involved in the synthesis of triacylglycerol, fatty acid phytyl esters and plastoquinol esters in cyanobacteria” (Planta, 2025).

Test [1] has as its target T1, slr2103 (Synechocystis sp. PCC 6803, UniProt P73931).
T1 construct: cloned in pQE-80L, expressed in E. coli; intact cells fed with substrate
T1 sequence (P73931 1-294): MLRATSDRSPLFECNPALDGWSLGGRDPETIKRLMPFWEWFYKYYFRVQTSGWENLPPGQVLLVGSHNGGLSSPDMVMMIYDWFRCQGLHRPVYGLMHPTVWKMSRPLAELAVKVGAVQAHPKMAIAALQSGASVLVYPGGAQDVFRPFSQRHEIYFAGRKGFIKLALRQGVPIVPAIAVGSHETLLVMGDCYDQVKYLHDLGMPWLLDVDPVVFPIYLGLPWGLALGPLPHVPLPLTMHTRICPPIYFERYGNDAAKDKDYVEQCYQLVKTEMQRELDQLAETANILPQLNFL
In words: feeding of E. coli cells expressing slr2103, acyl-DPQ product by LC-MS/MS. The format is cell-based. To be noted: supplied as decylplastoquinone (1500 nmol in 5 ml), reduced in cells; acyl donor from E. coli; 30 C, 3 h.

The target of the next test is T2, A0918 (Picosynechococcus sp. PCC 7002, UniProt B1XIY0).
T2 construct: gene plsC; amplified from genomic DNA, cloned in pQE-80L, expressed in E. coli; microsomal membrane fraction
T2 sequence (B1XIY0 1-291): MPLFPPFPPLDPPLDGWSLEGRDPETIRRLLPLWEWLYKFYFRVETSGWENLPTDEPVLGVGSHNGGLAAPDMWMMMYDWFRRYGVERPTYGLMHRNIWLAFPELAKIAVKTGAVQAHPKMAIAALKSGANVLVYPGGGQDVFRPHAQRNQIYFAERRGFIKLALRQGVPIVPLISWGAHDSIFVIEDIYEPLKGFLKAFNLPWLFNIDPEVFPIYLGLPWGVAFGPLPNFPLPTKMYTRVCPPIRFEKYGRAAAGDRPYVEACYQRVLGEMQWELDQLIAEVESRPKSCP
The test is described as follows: in vitro acyltransferase assay with E. coli microsomal membranes, TAG product by MS. The format is biochemical. The settings on record: 50 uM palmitoyl-CoA, 200 uM substrate, 20 mM MgCl2, 0.1% CHAPS, pH 7.4, 37 C, 20 min.

The target of test [2] is T1, slr2103. In words: feeding of E. coli cells expressing slr2103, TAG product by MS. It counts as cell-based. The settings on record: 1500 nmol substrate in 5 ml; acyl donor from E. coli; 30 C, 3 h.

Structures are written as SMILES.

`CCCCCCCCCCc1cc(O)c(C)c(C)c1O` [DPQ, decylplastoquinol]: the “feeding of E. coli cells expressing slr2103, acyl-DPQ product by LC-MS/MS” value at slr2103 [1] is “slr2103 is capable of acylating one of the quinol hydroxyl groups of DPQ”.

Consider `CCCCCCCC(=O)OCC(CO)OC(=O)CCCCCCC` (stereo not drawn) [dioctanoin], for which, on A0918, the “in vitro acyltransferase assay with E. coli microsomal membranes, TAG product by” value is “confirming that A0918 harbors acyltransferase activity for the synthesis of TAG and FAPE”. Also, the “feeding of E. coli cells expressing slr2103, TAG product by MS” value on slr2103 [2] was “Accumulation of TAG after supplementation of E. coli cells expressing slr2103 with dioctanoin”.
